Broadly, the pIC50 is −log10 of the IC50, conventionally taken in molar units. Low values mean a high IC50, high ones a low IC50.

The structures appear in SMILES notation. pIC50: −log10 of the molar value.

Consider 18 compounds from ChEMBL document CHEMBL3046174, “Docking and CoMFA study on novel human CCR5 receptor antagonists” (Med Chem Res, 2013).

C-C chemokine receptor type 5, sequence (P51681 whole entry): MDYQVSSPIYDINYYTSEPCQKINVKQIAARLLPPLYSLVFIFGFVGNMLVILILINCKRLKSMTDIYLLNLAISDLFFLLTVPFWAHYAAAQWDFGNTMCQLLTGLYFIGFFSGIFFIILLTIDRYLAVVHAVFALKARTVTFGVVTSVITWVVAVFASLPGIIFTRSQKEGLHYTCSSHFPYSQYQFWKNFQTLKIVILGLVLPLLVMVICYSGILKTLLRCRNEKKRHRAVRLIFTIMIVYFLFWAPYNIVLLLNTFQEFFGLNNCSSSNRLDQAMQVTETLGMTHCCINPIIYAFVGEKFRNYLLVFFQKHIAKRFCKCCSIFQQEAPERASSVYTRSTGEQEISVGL

The assay has as its target C-C chemokine receptor type 5 (Homo sapiens, UniProt P51681). The experiment in a line: Antagonist activity at Homo sapiens (human) CCR5 receptor.
Turning to `CCc1cccc(CC)c1NC(=O)NCC1(O)CCC(Cc2cc(Br)ccc2OCc2ccc(Cl)cc2)CC1` (stereo not drawn), the pIC50 was 7.96.

`N=C(N)N/N=C/c1cc(Br)ccc1OCc1ccc(Cl)cc1` showed a pIC50 of 6.22.

Compound `C/C(=N\NC(=N)N)c1cc(Br)ccc1OCc1ccc(C#N)cc1` showed a pIC50 of 7.03.

As to `O=C(NCC1(O)CCC(Cc2cc(Br)ccc2OCc2ccc(Cl)cc2)CC1)Nc1c(Cl)cc(Cl)cc1Cl` (stereo not drawn), the pIC50 was 6.35.

Compound `N=C(N)N/N=C/c1cc(Br)ccc1OCc1ccc(F)c(F)c1` gave a pIC50 of 5.43.

With `Brc1ccc(COc2ccc(Br)cc2N2CCOCC2)cc1`, the pIC50 was 6.00.

Compound `Cc1cc(C)c(NC(=O)NCC2(O)CCC(Cc3cc(Br)ccc3OCc3ccc(Cl)cc3)CC2)c(C)c1` (stereo not drawn) gave a pIC50 of 7.00.

On to `N=C(N)N/N=C/c1cc(Br)ccc1OCc1cccc(Cl)c1`, for which the pIC50 was 6.08.

In turn, `Cc1cccc(C)c1NC(=O)NCC1(O)CCC(Cc2cc(Br)ccc2OCc2ccc(Cl)cc2)CC1` (stereo not drawn) had a pIC50 of 7.33.

The compound `CCN(CC)c1cc(Br)ccc1OCc1ccc(Cl)cc1` had a pIC50 of 5.85. This pIC50 is 1.48 log units lower than that of the compound before.

The compound `CC(C)c1cccc(C(C)C)c1NC(=O)NCC1(O)CCC(Cc2cc(Br)ccc2OCc2ccc(Cl)cc2)CC1` (stereo not drawn) gave a pIC50 of 7.46.

In turn, `CN(C)c1cc(Br)ccc1OCc1ccc(Cl)cc1` had a pIC50 of 6.22. Compared with the last compound, the pIC50 is 1.24 log units lower.

As for `Cc1ccc(NC(=O)NCC2(O)CCC(Cc3cc(Br)ccc3OCc3ccc(Cl)cc3)CC2)cc1` (stereo not drawn), the negative-log IC50 (pIC50) was 5.82.

`O=C(NCC1(O)CCC(Cc2cc(Br)ccc2OCc2ccc(Cl)cc2)CC1)Nc1c(F)cccc1F` (stereo not drawn) showed a pIC50 of 6.50.

Turning to `CC/C(=N\NC(=N)N)c1cc(Br)ccc1OCc1ccc(Cl)cc1`, the pIC50 is 6.40.

In the case of `Cc1cc(Br)cc(C)c1NC(=O)NCC1(O)CCC(Cc2cc(Br)ccc2OCc2ccc(Cl)cc2)CC1` (stereo not drawn), the pIC50 is 6.77.

Compound `O=C(NCC1(O)CCC(Cc2cc(Br)ccc2OCc2ccc(Cl)cc2)CC1)Nc1c(Cl)cccc1Cl` (stereo not drawn) gave a pIC50 of 7.24. Compared with the last compound, the pIC50 is 0.47 log units higher.

`CC1CCN(CC2(O)CCN(Cc3cc(Br)ccc3OCc3ccc(Cl)cc3)CC2)CC1` gave a pIC50 of 6.68.
